# pIC50: −log10 of the molar value. Positions of bridges follow the written chain, without caps; N, C: chain ends. Non-standard residues stand in square brackets, D forms with d. Residues, ends and D or L forms follow the SMILES beside them. Cit = NC(=O)NCCC[C@H](N)C(=O)O
# Legend:
# [1] = biological target: hNav1.7 (Homo sapiens, UniProt Q15858); assay: cell-based; conditions: Nav1.7 Use IC50
# [2] = biological target: hNav1.5 (Homo sapiens, UniProt Q14524); assay: cell-based
# hNav1.5, sequence (Q14524 whole entry, looked up): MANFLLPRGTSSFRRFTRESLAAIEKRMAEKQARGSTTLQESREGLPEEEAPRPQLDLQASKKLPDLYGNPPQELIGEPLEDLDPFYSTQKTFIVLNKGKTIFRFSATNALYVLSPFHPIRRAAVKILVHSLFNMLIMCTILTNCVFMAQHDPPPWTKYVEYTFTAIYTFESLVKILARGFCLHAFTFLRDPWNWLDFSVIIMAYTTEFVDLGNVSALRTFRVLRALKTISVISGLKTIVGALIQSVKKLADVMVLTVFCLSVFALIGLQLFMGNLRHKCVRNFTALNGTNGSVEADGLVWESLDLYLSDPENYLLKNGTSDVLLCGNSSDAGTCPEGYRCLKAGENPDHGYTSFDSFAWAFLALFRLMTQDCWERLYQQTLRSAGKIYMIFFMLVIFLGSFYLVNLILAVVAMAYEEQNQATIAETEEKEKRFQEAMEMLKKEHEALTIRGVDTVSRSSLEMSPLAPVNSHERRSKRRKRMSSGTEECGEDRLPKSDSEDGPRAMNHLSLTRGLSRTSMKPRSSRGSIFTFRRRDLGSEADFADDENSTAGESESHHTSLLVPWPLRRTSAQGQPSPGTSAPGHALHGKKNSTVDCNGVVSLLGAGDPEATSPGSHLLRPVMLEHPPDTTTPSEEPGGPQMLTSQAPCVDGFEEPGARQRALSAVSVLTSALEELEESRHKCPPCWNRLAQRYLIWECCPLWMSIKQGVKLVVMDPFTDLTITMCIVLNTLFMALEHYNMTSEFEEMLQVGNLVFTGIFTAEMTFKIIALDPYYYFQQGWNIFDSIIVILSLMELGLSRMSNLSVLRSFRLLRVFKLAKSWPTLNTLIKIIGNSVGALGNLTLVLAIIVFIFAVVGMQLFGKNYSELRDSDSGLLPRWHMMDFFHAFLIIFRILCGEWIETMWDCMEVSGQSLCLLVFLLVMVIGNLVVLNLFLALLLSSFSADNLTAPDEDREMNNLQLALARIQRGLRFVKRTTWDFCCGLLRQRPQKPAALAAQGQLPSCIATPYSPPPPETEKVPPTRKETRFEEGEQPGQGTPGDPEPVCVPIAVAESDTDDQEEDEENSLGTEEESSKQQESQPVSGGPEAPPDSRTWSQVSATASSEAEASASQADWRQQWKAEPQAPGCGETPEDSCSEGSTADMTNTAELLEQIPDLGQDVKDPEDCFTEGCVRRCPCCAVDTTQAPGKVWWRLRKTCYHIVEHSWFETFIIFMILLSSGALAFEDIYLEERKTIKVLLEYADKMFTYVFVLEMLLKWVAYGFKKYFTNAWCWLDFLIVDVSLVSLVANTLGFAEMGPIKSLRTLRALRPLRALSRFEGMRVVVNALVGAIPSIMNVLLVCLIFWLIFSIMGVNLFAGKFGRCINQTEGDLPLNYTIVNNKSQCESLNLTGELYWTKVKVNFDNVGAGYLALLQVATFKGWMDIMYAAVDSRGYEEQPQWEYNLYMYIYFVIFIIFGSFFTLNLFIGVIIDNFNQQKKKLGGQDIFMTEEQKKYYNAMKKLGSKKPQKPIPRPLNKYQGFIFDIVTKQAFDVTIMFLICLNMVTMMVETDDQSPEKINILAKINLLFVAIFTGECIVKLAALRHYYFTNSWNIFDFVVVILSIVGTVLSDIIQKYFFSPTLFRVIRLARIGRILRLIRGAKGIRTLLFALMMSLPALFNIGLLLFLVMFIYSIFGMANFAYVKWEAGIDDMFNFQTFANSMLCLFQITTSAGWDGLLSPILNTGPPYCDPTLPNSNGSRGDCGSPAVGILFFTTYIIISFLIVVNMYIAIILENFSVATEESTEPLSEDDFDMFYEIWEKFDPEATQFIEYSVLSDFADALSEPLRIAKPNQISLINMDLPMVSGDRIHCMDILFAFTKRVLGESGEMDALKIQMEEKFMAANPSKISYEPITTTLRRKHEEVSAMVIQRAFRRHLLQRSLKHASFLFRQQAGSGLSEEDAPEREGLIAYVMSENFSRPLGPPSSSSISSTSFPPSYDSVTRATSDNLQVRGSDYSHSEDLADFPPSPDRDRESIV
# hNav1.7, sequence (Q15858 whole entry, looked up): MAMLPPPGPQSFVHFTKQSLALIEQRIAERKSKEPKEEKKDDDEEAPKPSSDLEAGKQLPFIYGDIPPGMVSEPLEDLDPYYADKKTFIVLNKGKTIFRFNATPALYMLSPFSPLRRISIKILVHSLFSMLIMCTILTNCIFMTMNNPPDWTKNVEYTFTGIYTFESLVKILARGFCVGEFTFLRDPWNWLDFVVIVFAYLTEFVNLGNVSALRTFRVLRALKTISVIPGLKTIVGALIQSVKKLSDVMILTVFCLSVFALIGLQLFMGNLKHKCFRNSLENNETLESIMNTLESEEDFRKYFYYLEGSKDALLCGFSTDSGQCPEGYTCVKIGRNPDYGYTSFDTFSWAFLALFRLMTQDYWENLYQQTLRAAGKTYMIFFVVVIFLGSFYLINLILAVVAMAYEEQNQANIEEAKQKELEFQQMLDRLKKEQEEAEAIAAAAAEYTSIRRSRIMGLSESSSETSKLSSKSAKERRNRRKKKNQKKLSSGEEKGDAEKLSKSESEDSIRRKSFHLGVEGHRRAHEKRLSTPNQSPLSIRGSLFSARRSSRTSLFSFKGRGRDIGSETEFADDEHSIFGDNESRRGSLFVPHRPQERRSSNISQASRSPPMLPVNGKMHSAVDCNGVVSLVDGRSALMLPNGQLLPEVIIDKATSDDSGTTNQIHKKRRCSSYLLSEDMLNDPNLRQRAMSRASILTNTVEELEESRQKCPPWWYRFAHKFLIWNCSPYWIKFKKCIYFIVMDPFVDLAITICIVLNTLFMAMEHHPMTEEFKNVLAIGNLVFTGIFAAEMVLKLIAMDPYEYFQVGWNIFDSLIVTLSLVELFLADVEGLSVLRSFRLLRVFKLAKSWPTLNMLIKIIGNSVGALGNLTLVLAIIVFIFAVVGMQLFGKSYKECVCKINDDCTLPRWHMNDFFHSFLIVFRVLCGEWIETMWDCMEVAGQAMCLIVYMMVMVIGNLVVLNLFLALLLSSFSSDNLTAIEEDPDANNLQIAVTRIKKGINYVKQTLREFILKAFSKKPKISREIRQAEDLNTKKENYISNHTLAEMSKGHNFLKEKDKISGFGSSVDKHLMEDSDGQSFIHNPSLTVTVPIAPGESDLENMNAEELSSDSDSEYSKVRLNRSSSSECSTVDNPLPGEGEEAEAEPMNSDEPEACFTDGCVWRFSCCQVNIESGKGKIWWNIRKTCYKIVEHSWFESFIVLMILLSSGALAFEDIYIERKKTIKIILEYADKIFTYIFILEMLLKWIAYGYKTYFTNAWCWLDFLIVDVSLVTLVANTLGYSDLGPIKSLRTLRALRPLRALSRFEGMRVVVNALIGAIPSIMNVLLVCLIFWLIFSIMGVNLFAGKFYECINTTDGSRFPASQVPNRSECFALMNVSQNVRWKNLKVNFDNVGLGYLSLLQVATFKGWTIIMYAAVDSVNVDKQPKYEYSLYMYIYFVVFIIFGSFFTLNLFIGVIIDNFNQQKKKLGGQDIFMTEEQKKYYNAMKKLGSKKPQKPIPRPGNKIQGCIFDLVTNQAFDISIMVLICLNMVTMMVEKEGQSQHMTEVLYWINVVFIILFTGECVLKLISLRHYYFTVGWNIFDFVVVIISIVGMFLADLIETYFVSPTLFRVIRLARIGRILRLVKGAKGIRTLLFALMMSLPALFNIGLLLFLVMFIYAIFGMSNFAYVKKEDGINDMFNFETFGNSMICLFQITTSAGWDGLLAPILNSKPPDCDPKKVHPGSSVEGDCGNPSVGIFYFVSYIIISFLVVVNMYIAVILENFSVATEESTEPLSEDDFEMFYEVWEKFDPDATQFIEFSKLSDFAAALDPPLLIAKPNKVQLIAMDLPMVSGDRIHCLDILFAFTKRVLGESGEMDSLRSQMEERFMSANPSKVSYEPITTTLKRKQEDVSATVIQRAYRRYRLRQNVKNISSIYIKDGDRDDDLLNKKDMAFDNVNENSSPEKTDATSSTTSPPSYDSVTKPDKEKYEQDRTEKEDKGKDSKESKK
SMILES,pIC50 [1],pIC50 [2]
"CC[C@H](C)[C@@H]1NC(=O)[C@@H]2CSSC[C@@H]3NC(=O)[C@H](Cc4c[nH]c5ccccc45)NC(=O)[C@H](CC(C)C)NC(=O)[C@H](CC(N)=O)NC(=O)[C@@H]4CCCN4C(=O)[C@H](CCCNC(=N)N)NC(=O)[C@H](CSSC[C@H](NC(=O)[C@@H](N)CC(=O)O)C(=O)N[C@@H](CC(C)C)C(=O)NCC(=O)N[C@@H](Cc4ccccc4)C(=O)N[C@@H](CCSC)C(=O)N[C@@H](CCCNC(=N)N)C(=O)N[C@@H](CCCCN)C(=O)N2)NC(=O)[C@H](CSSC[C@@H](C(=O)N[C@@H](CCCCN)C(=O)N[C@@H](Cc2ccc(O)cc2)C(=O)N[C@H](C(=O)N[C@@H](Cc2ccccc2)C(N)=O)C(C)C)NC(=O)[C@H](Cc2c[nH]c4ccccc24)NC(=O)[C@H](CCCCN)NC(=O)[C@H](Cc2cnc[nH]2)NC(=O)[C@H]([C@@H](C)O)NC(=O)[C@H](CCCNC(=N)N)NC(=O)[C@H](CO)NC3=O)NC(=O)[C@H](CCCCN)NC(=O)[C@H](CC(=O)O)NC(=O)[C@H](CC(N)=O)NC(=O)[C@H](CC(=O)O)NC(=O)[C@@H]2CCCN2C1=O [[Trp22]GpTx-1(1-34)] (H-DCLGFMRKCIPDNDKCCRPNLWCSRTHKWCKYVF-NH2; disulfide 2-17, 9-23, 16-30)",7.41,5.32
"CC[C@H](C)[C@@H]1NC(=O)[C@@H]2CSSC[C@@H]3NC(=O)[C@H](C(C)C)NC(=O)[C@H](CC(C)C)NC(=O)[C@H](CC(N)=O)NC(=O)[C@@H]4CCCN4C(=O)[C@H](CCCNC(=N)N)NC(=O)[C@H](CSSC[C@H](NC(=O)[C@@H](N)CC(=O)O)C(=O)N[C@@H](CC(C)C)C(=O)NCC(=O)N[C@@H](Cc4ccccc4)C(=O)N[C@@H](CCSC)C(=O)N[C@@H](CCCNC(=N)N)C(=O)N[C@@H](CCCCN)C(=O)N2)NC(=O)[C@H](CSSC[C@@H](C(=O)N[C@@H](CCCCN)C(=O)N[C@@H](Cc2ccc(O)cc2)C(=O)N[C@@H](Cc2c[nH]c4ccccc24)C(=O)N[C@@H](Cc2ccccc2)C(N)=O)NC(=O)[C@H](Cc2c[nH]c4ccccc24)NC(=O)[C@H](CCCCN)NC(=O)[C@H](Cc2c[nH]cn2)NC(=O)[C@H]([C@@H](C)O)NC(=O)[C@H](CCCNC(=N)N)NC(=O)[C@H](CO)NC3=O)NC(=O)[C@H](CCCCN)NC(=O)[C@H](CC(=O)O)NC(=O)[C@H](CC(N)=O)NC(=O)[C@H](CC(=O)O)NC(=O)[C@@H]2CCCN2C1=O [[Trp33]GpTx-1(1-34)] (H-DCLGFMRKCIPDNDKCCRPNLVCSRTHKWCKYWF-NH2; disulfide 2-17, 9-23, 16-30)",7.74,5.63
"CC[C@H](C)[C@@H]1NC(=O)[C@@H]2CSSC[C@@H]3NC(=O)[C@H](Cc4ccc(O)cc4)NC(=O)[C@H](CC(C)C)NC(=O)[C@H](CC(N)=O)NC(=O)[C@@H]4CCCN4C(=O)[C@H](CCCNC(=N)N)NC(=O)[C@H](CSSC[C@H](NC(=O)[C@@H](N)CC(=O)O)C(=O)N[C@@H](CC(C)C)C(=O)NCC(=O)N[C@@H](Cc4ccccc4)C(=O)N[C@@H](CCSC)C(=O)N[C@@H](CCCNC(=N)N)C(=O)N[C@@H](CCCCN)C(=O)N2)NC(=O)[C@H](CSSC[C@@H](C(=O)N[C@@H](CCCCN)C(=O)N[C@@H](Cc2ccc(O)cc2)C(=O)N[C@H](C(=O)N[C@@H](Cc2ccccc2)C(N)=O)C(C)C)NC(=O)[C@H](Cc2c[nH]c4ccccc24)NC(=O)[C@H](CCCCN)NC(=O)[C@H](Cc2c[nH]cn2)NC(=O)[C@H]([C@@H](C)O)NC(=O)[C@H](CCCNC(=N)N)NC(=O)[C@H](CO)NC3=O)NC(=O)[C@H](CCCCN)NC(=O)[C@H](CC(=O)O)NC(=O)[C@H](CC(N)=O)NC(=O)[C@H](CC(=O)O)NC(=O)[C@@H]2CCCN2C1=O [[Tyr22]GpTx-1(1-34)] (H-DCLGFMRKCIPDNDKCCRPNLYCSRTHKWCKYVF-NH2; disulfide 2-17, 9-23, 16-30)",7.74,< 5.00
"CSCC[C@@H]1NC(=O)[C@H](C(C)C)NC(=O)CNC(=O)[C@H](CC(C)C)NC(=O)[C@@H](NC(=O)[C@@H](N)CC(=O)O)CSSC[C@@H]2NC(=O)[C@@H]3CSSC[C@@H](C(=O)N[C@@H](CCCCN)C(=O)N[C@@H](Cc4ccc(O)cc4)C(=O)N[C@H](C(=O)N[C@@H](Cc4ccccc4)C(N)=O)C(C)C)NC(=O)[C@H](Cc4c[nH]c5ccccc45)NC(=O)[C@H](CCCCN)NC(=O)[C@H](Cc4c[nH]cn4)NC(=O)[C@H]([C@@H](C)O)NC(=O)[C@H](CCCNC(=N)N)NC(=O)[C@H](CO)NC(=O)[C@H](CSSC[C@H](NC(=O)[C@H](CCCCN)NC(=O)[C@H](CCCNC(=N)N)NC1=O)C(=O)N[C@@H](CC(=O)O)C(=O)N1CCC[C@H]1C(=O)N[C@@H](CCC(=O)O)C(=O)N[C@@H](CC(N)=O)C(=O)N[C@@H](CC(=O)O)C(=O)N[C@@H](CCCCN)C(=O)N3)NC(=O)[C@H](C(C)C)NC(=O)[C@H](CC(C)C)NC(=O)[C@H](CC(N)=O)NC(=O)[C@@H]1CCCN1C(=O)[C@H](CCCNC(=N)N)NC2=O [[Val5;Asp10;Glu12]GpTx-1(1-34)] (H-DCLGVMRKCDPENDKCCRPNLVCSRTHKWCKYVF-NH2; disulfide 2-17, 9-23, 16-30)",6.94,< 5.00
"CSCC[C@@H]1NC(=O)[C@H](C(C)C)NC(=O)CNC(=O)[C@H](CC(C)C)NC(=O)[C@@H](NC(=O)[C@@H](N)CC(=O)O)CSSC[C@@H]2NC(=O)[C@@H]3CSSC[C@@H](C(=O)N[C@@H](CCCCN)C(=O)N[C@@H](Cc4ccc(O)cc4)C(=O)N[C@H](C(=O)N[C@@H](Cc4ccccc4)C(N)=O)C(C)C)NC(=O)[C@H](Cc4c[nH]c5ccccc45)NC(=O)[C@H](CCCCN)NC(=O)[C@H](Cc4c[nH]cn4)NC(=O)[C@H]([C@@H](C)O)NC(=O)[C@H](CCCNC(=N)N)NC(=O)[C@H](CO)NC(=O)[C@H](CSSC[C@H](NC(=O)[C@H](CCCCN)NC(=O)[C@H](CCCNC(=N)N)NC1=O)C(=O)N[C@@H](CC(=O)O)C(=O)N1CCC[C@H]1C(=O)N[C@@H](CC(=O)O)C(=O)N[C@@H](CC(N)=O)C(=O)N[C@@H](CC(=O)O)C(=O)N[C@@H](CCCCN)C(=O)N3)NC(=O)[C@H](C(C)C)NC(=O)[C@H](CC(C)C)NC(=O)[C@H](CC(N)=O)NC(=O)[C@@H]1CCCN1C(=O)[C@H](CCCNC(=N)N)NC2=O [[Val5;Asp10]GpTx-1(1-34)] (H-DCLGVMRKCDPDNDKCCRPNLVCSRTHKWCKYVF-NH2; disulfide 2-17, 9-23, 16-30)",6.76,< 5.00
"CC[C@H](C)[C@@H]1NC(=O)[C@@H]2CSSC[C@@H]3NC(=O)[C@H](C(C)C)NC(=O)[C@H](CC(C)C)NC(=O)[C@H](CC(N)=O)NC(=O)[C@@H]4CCCN4C(=O)[C@H](CCCNC(=N)N)NC(=O)[C@H](CSSC[C@H](NC(=O)[C@@H](N)CC(=O)O)C(=O)N[C@@H](CC(C)C)C(=O)NCC(=O)N[C@@H](C(C)C)C(=O)N[C@@H](CCSC)C(=O)N[C@@H](CCCNC(=N)N)C(=O)N[C@@H](CCCCN)C(=O)N2)NC(=O)[C@H](CSSC[C@@H](C(=O)N[C@@H](CCCCN)C(=O)N[C@@H](Cc2ccc(O)cc2)C(=O)N[C@H](C(=O)N[C@@H](Cc2ccccc2)C(N)=O)C(C)C)NC(=O)[C@H](Cc2c[nH]c4ccccc24)NC(=O)[C@H](CCCCN)NC(=O)[C@H](Cc2c[nH]cn2)NC(=O)[C@H]([C@@H](C)O)NC(=O)[C@H](CCCNC(N)=O)NC(=O)[C@H](CO)NC3=O)NC(=O)[C@H](CCCCN)NC(=O)[C@H](CC(=O)O)NC(=O)[C@H](CC(N)=O)NC(=O)[C@H](CC(=O)O)NC(=O)[C@@H]2CCCN2C1=O [[Val5;Cit25]GpTx-1(1-34)] (H-DCLGVMRKCIPDNDKCCRPNLVCS[Cit]THKWCKYVF-NH2; disulfide 2-17, 9-23, 16-30)",7.55,< 5.00
"CC[C@H](C)[C@@H]1NC(=O)[C@@H]2CSSC[C@@H]3NC(=O)[C@H](C(C)C)NC(=O)[C@H](CC(C)C)NC(=O)[C@H](CC(N)=O)NC(=O)[C@@H]4CCCN4C(=O)[C@H](CCCNC(=N)N)NC(=O)[C@H](CSSC[C@H](NC(=O)[C@@H](N)CC(=O)O)C(=O)N[C@@H](CC(C)C)C(=O)NCC(=O)N[C@@H](C(C)C)C(=O)N[C@@H](CCSC)C(=O)N[C@@H](CCCNC(=N)N)C(=O)N[C@@H](CCCCN)C(=O)N2)NC(=O)[C@H](CSSC[C@@H](C(=O)N[C@@H](CCCCN)C(=O)N[C@@H](Cc2ccc(O)cc2)C(=O)N[C@H](C(=O)N[C@@H](Cc2ccccc2)C(N)=O)C(C)C)NC(=O)[C@H](Cc2c[nH]c4ccccc24)NC(=O)[C@H](CCCCN)NC(=O)[C@H](Cc2c[nH]cn2)NC(=O)[C@H]([C@@H](C)O)NC(=O)[C@H](CCCNC(=N)N)NC(=O)[C@H](CO)NC3=O)NC(=O)[C@H](CCCCN)NC(=O)[C@H](CC(=O)O)NC(=O)[C@H](CC(N)=O)NC(=O)[C@H](CCC(=O)O)NC(=O)[C@@H]2CCCN2C1=O [[Val5;Glu12]GpTx-1(1-34)] (H-DCLGVMRKCIPENDKCCRPNLVCSRTHKWCKYVF-NH2; disulfide 2-17, 9-23, 16-30)",7.13,< 5.00
"CC[C@H](C)[C@@H]1NC(=O)[C@@H]2CSSC[C@@H]3NC(=O)[C@H](C(C)C)NC(=O)[C@H](CC(C)C)NC(=O)[C@H](CC(N)=O)NC(=O)[C@@H]4CCCN4C(=O)[C@H](CCCNC(=N)N)NC(=O)[C@H](CSSC[C@H](NC(=O)[C@@H](N)CC(=O)O)C(=O)N[C@@H](CC(C)C)C(=O)NCC(=O)N[C@@H](C(C)C)C(=O)N[C@@H](CCSC)C(=O)N[C@@H](CCCNC(=N)N)C(=O)N[C@@H](CCCCN)C(=O)N2)NC(=O)[C@H](CSSC[C@@H](C(=O)N[C@@H](CCCCN)C(=O)N[C@@H](Cc2ccc(O)cc2)C(=O)N[C@H](C(=O)N[C@@H](Cc2ccccc2)C(N)=O)C(C)C)NC(=O)[C@H](Cc2c[nH]c4ccccc24)NC(=O)[C@H](CCC(=O)O)NC(=O)[C@H](Cc2c[nH]cn2)NC(=O)[C@H]([C@@H](C)O)NC(=O)[C@H](CCCNC(=N)N)NC(=O)[C@H](CO)NC3=O)NC(=O)[C@H](CCCCN)NC(=O)[C@H](CC(=O)O)NC(=O)[C@H](CC(N)=O)NC(=O)[C@H](CC(=O)O)NC(=O)[C@@H]2CCCN2C1=O [[Val5;Glu28]GpTx-1(1-34)] (H-DCLGVMRKCIPDNDKCCRPNLVCSRTHEWCKYVF-NH2; disulfide 2-17, 9-23, 16-30)",7.54,< 5.00

# Source: patent publication US9340590B2 (priority 2011, dated 2016)
